This note sets out measurements from patent US8232273B2, “Heterocyclic compounds and methods of use” (Genentech, Inc., priority 2008, dated 2012).

The target of test [1] is T1, Bcl-xL (GST-Bcl-xL) (Homo sapiens, UniProt Q07817). The experiment in a line: AlphaScreen Bcl-xL binding assay, competition with biotinylated Bim peptide. On the set-up: made in house. The conditions noted are these: values listed in the order of Table 1; read-out: Alphascreen results (IC50) against the Bcl-xL protein. From the text:
The measurement of competition of compounds of the invention with Bim26-mer for a Bcl-2 family protein binding site using an Alpha Screen Bcl-xL binding assay:
The BH3 proteins AlphaScreen™ assay was used to identify active small molecules Bcl-2 family protein screen, e.g., Bcl-xL, hmMcl-1 screen.
The beads come in close proximity when the protein and the peptides interact. Donor beads contain a photosensitiser that converts oxygen to an excited form of O2 at an excitation of 680 nm. Energy is transformed from the singlet oxygen and reacts with chemiluminescers on the acceptor bead, resulting in light emission at 520-620 nm. […] With this information, the IC50 of each compound was calculated
GST-Bcl-xL, GST-hmMcl-1 and biotinylated GST proteins were prepared in-house and were stored as stock solutions at −80° C. The biotinylated-Bak, and biotinylated-Bim peptides were purchased from Auspep and were stored as 500 μM stock solutions in 100% DMSO at −80° C. […] DMSO was purchased from AnalaR.
Compounds of the invention were prepared as 10 mM stocks with 100% DMSO on the day prior to performing the assay. […] To achieve a final compound concentration of 1 μM, in a separate matrical plate, 28 μL of 100% DMSO and 2 μL of 10 mM compound was added to a well, mixed well, 2 μL of this solution was taken and added to 38 μL of 100% DMSO. 20 μL of this solution was added to the test matrical plate. Several control compounds were included in the test plates. For the control wells 15 μL 100% DMSO only was added to the appropriate wells of each plate. The compound plates were then serially diluted 2 fold using the MiniTrak. Once titrations were complete, the compound plate was immediately covered with a foil seal to prevent evaporation.
The assay and bead buffers were prepared fresh. Each titrated compound plate was assayed in duplicate. The following volumes were sufficient to run 12 Proxiplates (4 assay plates run in duplicate in each of Bclxl, hmMcl and counter assays)
Protein and Peptide Preparation; and Assay Performance • 1. The assay and bead buffers were used to prepare the acceptor and donor solutions. ALPHASCREEN™ beads are light sensitive and therefore prepared in a darkened room. 2.5 μL of beads were added per 1 mL of buffer. • 2. The volume of protein or peptide to add was calculated using the following formula:
V2=Volume of stock protein/Peptide to add to Acceptor/Donor solution • 3. The assay components were prepared as separate Acceptor and Donor Solutions. The Acceptor Solution contained Acceptor beads and target protein, while the Donor Solution contained Donor beads and biotinylated peptide.
• 4. After the solutions were prepared, they were left to incubate for 30 minutes at room temperature to allow the beads to bind to the protein and the peptide. • 5. 50 μL of Bcl-xL solution, 50 μL of hmMcl-1 solution and 50 μL of biotinylated-GST were added into separate deep wells on an assay plate. A control 50 μL Assay/Bead buffer was added separate well plates (no protein). • 6. 50 μL of Bim solution and 50 μL of Bak solution were added into separate deep well plates. • 7. Transfer 0.3 μL it of sample from the compound plate into each assay plate. • 8. Incubated for 30 mins at RT, then add 5 μL of the Donor solution. After addition of the Donor solution, tapped plates gently and sealed individually with adhesive film. • 9.
The percent inhibition was calculated using the following equation:
[formula] • x=RFU obtained after compound treatment • μ^−=RFU obtained for the negative controls (no protein controls) • μ^+=RFU obtained for the positive controls (DMSO vehicle controls)
For orientation: In Alpha technology, singlet oxygen from a donor bead excites a nearby acceptor bead.

Test [2] has as its target T1, Bcl-xL (GST-Bcl-xL). The experiment in a line: TR-FRET binding assay, competition with F-Bak for the Bcl-xL binding site. As to conditions: values listed in the order of Table 1, read-out: TR-FRET assay results (Ki), Bcl-xL. As to the method: The measurement of competition of compounds of the invention with F-Bak for a Bcl-2 family protein (Bcl-xL) binding site using a Time Resolved Fluorescence Resonance Energy Transfer (TR-FRET) binding assay:
Test compounds were serially diluted in DMSO starting at 50 μM (2× starting concentration; 10% DMSO) and 10 μt transferred into a 384-well plate.
The samples are then mixed on a shaker for 1 minute then incubated for an additional 2 hours at room temperature. For each assay plate, a probe/antibody and protein/antibody/probe mixture were included as a negative and a positive control, respectively. Fluorescence was measured on the Envision (Perkin Elmer) using a 340/35 nm excitation filter and 520/525 (F-Bak) and 495/510 nm (Tb-labeled anti-his antibody) emission filters. Dissociation constants (Ki) were determined using Wang's equation (see, Wang, Z. X. An exact mathematical expression for describing competitive binding of two different ligands to a protein molecule. FEBS Lett. 1995 360:111-114). The TR-FRET assay can be performed in the presence of varying concentrations of human serum (HS) or fetal bovine serum (FBS).
A general note: TR-FRET usually uses a lanthanide donor and a delayed reading to cut background.

T1 sequence (Q07817 whole entry, species assumed): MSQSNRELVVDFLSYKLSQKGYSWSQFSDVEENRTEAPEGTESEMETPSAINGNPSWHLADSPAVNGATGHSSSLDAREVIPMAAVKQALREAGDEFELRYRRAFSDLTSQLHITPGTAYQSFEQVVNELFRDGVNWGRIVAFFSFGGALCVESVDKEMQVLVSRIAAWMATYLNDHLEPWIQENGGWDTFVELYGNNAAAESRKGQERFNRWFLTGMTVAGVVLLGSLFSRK

Regarding `CN(C)CC#Cc1ccc(OCCCc2sc(N3CCc4cccc(C(=O)Nc5nc6ccccc6s5)c4C3)nc2C(=O)O)c(Cl)c1` [Compound 119, 2-(8-(benzo[d]thiazol-2-ylcarbamoyl)-3,4-dihydroisoquinolin-2(1H)-yl)-5-(3-(2-chloro-4-(3-(dimethylamino)prop-1-ynyl)phenoxy)propyl)thiazole-4-carboxylic acid], the IC50 at Bcl-xL (GST-Bcl-xL) [1] is 0.2 nM. The inhibition constant (Ki) at Bcl-xL (GST-Bcl-xL) [2] was 0.04 nM.
On to `O=C(O)c1cccc(N2CCc3cccc(C(=O)Nc4nc5ccccc5s4)c3C2)n1` [Compound 120, 6-(8-(benzo[d]thiazol-2-ylcarbamoyl)-3,4-dihydroisoquinolin-2(1H)-yl)picolinic acid], for which the IC50 on Bcl-xL (GST-Bcl-xL) [1] turned out to be 310 nM. Further, the Ki at Bcl-xL (GST-Bcl-xL) [2] was 150 nM.
As to `O=C(Nc1nc2ccccc2s1)c1cccc2c1CN(c1ccc(CCCOc3ccccc3)c(C(=O)O)n1)CC2` [Compound 121, 6-(8-(benzo[d]thiazol-2-ylcarbamoyl)-3,4-dihydroisoquinolin-2(1H)-yl)-3-(3-phenoxypropyl)picolinic acid], the IC50 at Bcl-xL (GST-Bcl-xL) [1] was 136 nM. At Bcl-xL (GST-Bcl-xL) [2], the Ki turned out to be 10.6 nM.
`O=C(O)c1ccnc(N2CCc3cccc(C(=O)Nc4nc5ccccc5s4)c3C2)n1` [Compound 122, 2-(8-(benzo[d]thiazol-2-ylcarbamoyl)-3,4-dihydroisoquinolin-2(1H)-yl)pyrimidine-4-carboxylic acid]: the IC50 at Bcl-xL (GST-Bcl-xL) [1] stood at 7500 nM.
`O=C(Nc1nc2ccccc2s1)c1cccc2c1CN(c1ncc(Cl)c(C(=O)O)n1)CC2` [Compound 123, 2-(8-(benzo[d]thiazol-2-ylcarbamoyl)-3,4-dihydroisoquinolin-2(1H)-yl)-5-chloropyrimidine-4-carboxylic acid]: the IC50 on Bcl-xL (GST-Bcl-xL) [1] came out at 4000 nM.
Turning to `O=C(O)c1coc(N2CCc3cccc(C(=O)Nc4nc5ccccc5s4)c3C2)n1` [Compound 124, 2-(8-(benzo[d]thiazol-2-ylcarbamoyl)-3,4-dihydroisoquinolin-2(1H)-yl)oxazole-4-carboxylic acid], the IC50 at Bcl-xL (GST-Bcl-xL) [1] worked out at 865 nM.
Turning to `O=C(Nc1nc2ccccc2s1)c1cccc2c1CN(c1ccc(-c3ccccc3)c(C(=O)O)n1)CC2` [Compound 125, 6-(8-(benzo[d]thiazol-2-ylcarbamoyl)-3,4-dihydroisoquinolin-2(1H)-yl)-3-phenylpicolinic acid], the IC50 at Bcl-xL (GST-Bcl-xL) [1] is 124 nM. The Ki at Bcl-xL (GST-Bcl-xL) [2] was 66.2 nM.
Taken in the same sequence, the figures for `Cc1ccccc1-c1ccc(N2CCc3cccc(C(=O)Nc4nc5ccccc5s4)c3C2)nc1C(=O)O` [Compound 126, 6-(8-(benzo[d]thiazol-2-ylcarbamoyl)-3,4-dihydroisoquinolin-2(1H)-yl)-3-o-tolylpicolinic acid] were 77.6 nM and 197 nM.
Taken in the same sequence, the figures for `O=C(Nc1nc2ccccc2s1)c1cccc2c1CN(c1ccc(CCc3ccccc3)c(C(=O)O)n1)CC2` [Compound 127, 6-(8-(benzo[d]thiazol-2-ylcarbamoyl)-3,4-dihydroisoquinolin-2(1H)-yl)-3-phenethylpicolinic acid] were 598 nM and 660 nM.
In the case of `O=C(CSc1ccccc1)Nc1ccc(N2CCc3cccc(C(=O)Nc4nc5ccccc5s4)c3C2)nc1C(=O)O` [Compound 128, 6-(8-(benzo[d]thiazol-2-ylcarbamoyl)-3,4-dihydroisoquinolin-2(1H)-yl)-3-(2-(phenylthio)acetamido)picolinic acid], the IC50 at Bcl-xL (GST-Bcl-xL) [1] turned out to be 340 nM.
On to `CN(C)CCOc1ccc(OCCCc2ccc(N3CCc4cccc(C(=O)Nc5nc6ccccc6s5)c4C3)nc2C(=O)O)cc1` [Compound 132, 6-(8-(benzo[d]thiazol-2-ylcarbamoyl)-3,4-dihydroisoquinolin-2(1H)-yl)-3-(3-(4-(2-(dimethylamino)ethoxy)phenoxy)propyl)picolinic acid], for which, on Bcl-xL (GST-Bcl-xL) [1], the IC50 turned out to be 0.9 nM. Further, the Ki at Bcl-xL (GST-Bcl-xL) [2] was found to be 0.18 nM.
With `CN(C)CC#Cc1ccc(OCCCc2ccc(N3CCc4cccc(C(=O)Nc5nc6ccccc6s5)c4C3)nc2C(=O)O)cc1` [Compound 133, 6-(8-(benzo[d]thiazol-2-ylcarbamoyl)-3,4-dihydroisoquinolin-2(1H)-yl)-3-(3-(4-(3-(dimethylamino)prop-1-ynyl)phenoxy)propyl)picolinic acid], on Bcl-xL (GST-Bcl-xL) [1], the IC50 came out at 1.2 nM. Besides, the inhibitory constant (Ki) at Bcl-xL (GST-Bcl-xL) [2] was found to be 0.023 nM.
Turning to `O=C(Nc1nc2ccccc2s1)c1cccc2c1CN(c1ccc(/C=C/c3ccccc3)c(C(=O)O)n1)CC2` [Compound 135, (E)-6-(8-(benzo[d]thiazol-2-ylcarbamoyl)-3,4-dihydroisoquinolin-2(1H)-yl)-3-styrylpicolinic acid], the IC50 at Bcl-xL (GST-Bcl-xL) [1] is 92.4 nM.
Take `COc1ccc(COc2ccc(N3CCc4cccc(C(=O)Nc5nc6ccccc6s5)c4C3)nc2C(=O)O)cc1` [Compound 136, 6-(8-(benzo[d]thiazol-2-ylcarbamoyl)-3,4-dihydroisoquinolin-2(1H)-yl)-3-(4-methoxybenzyloxy)picolinic acid]: the IC50 on Bcl-xL (GST-Bcl-xL) [1] came to 19000 nM.
On the same count and under the same terms, in the case of `O=C(Nc1nc2ccccc2s1)c1cccc2c1CN(c1ccc(CCCc3ccccc3)c(C(=O)O)n1)CC2` [Compound 137, 6-(8-(benzo[d]thiazol-2-ylcarbamoyl)-3,4-dihydroisoquinolin-2(1H)-yl)-3-(3-phenylpropyl)picolinic acid] it was 30 nM.
Still for that read-out and setting: then `O=C(Nc1nc2ccccc2s1)c1cccc2c1CN(c1ccc(/C=C/Cc3ccccc3)c(C(=O)O)n1)CC2` [Compound 138, (E)-6-(8-(benzo[d]thiazol-2-ylcarbamoyl)-3,4-dihydroisoquinolin-2(1H)-yl)-3-(3-phenylprop-1-enyl)picolinic acid], with 3 nM; and `O=C(Nc1nc2ccccc2s1)c1cccc2c1CN(c1ccc(CCCOc3ccc(OCCN4CCCC4)cc3)c(C(=O)O)n1)CC2` [Example 106, 6-(8-(benzo[d]thiazol-2-ylcarbamoyl)-3,4-dihydroisoquinolin-2(1H)-yl)-3-(3-(4-(2-(pyrrolidin-1-yl)ethoxy)phenoxy)propyl)picolinic acid], with 1.1 nM.
For `O=C(Nc1nc2ccccc2s1)c1cccc2c1CN(c1nc(C(=O)O)c(CCc3ccc4cc(OCCCN5CCOCC5)ccc4c3)s1)CC2` [Example 111, 2-(8-(benzo[d]thiazol-2-ylcarbamoyl)-3,4-dihydroisoquinolin-2(1H)-yl)-5-(2-(6-(3-morpholinopropoxy)naphthalen-2-yl)ethyl)thiazole-4-carboxylic acid], the Ki at Bcl-xL (GST-Bcl-xL) [2] is 0.02 nM.
On to `O=C(Nc1nc2ccccc2s1)c1cccc2c1CN(c1nc(C(=O)O)c(CCCOc3cc(F)c(NCCN4CCOCC4)cc3F)s1)CC2` [Example 115, 2-(8-(benzo[d]thiazol-2-ylcarbamoyl)-3,4-dihydroisoquinolin-2(1H)-yl)-5-(3-(2,5-difluoro-4-(2-morpholinoethylamino)phenoxy)propyl)thiazole-4-carboxylic acid], for which, on Bcl-xL (GST-Bcl-xL) [2], the inhibition constant (Ki) amounted to 0.05 nM.

A word on the IC50: it is the point on the concentration scale where inhibition reaches its midpoint. For orientation: Ki means the dissociation constant of the complex between target and ligand, obtained from inhibition or displacement.
